Key:
[1] = test system: Tagia sp.; settings: acute; duration: 14 days; mortality
[2] = test system: Canidae; settings: subchronic; duration: 90 days; oral; Dog Other; histopathology: nonneoplastic
[3] = test system: Rattus norvegicus
[4] = test system: Daphnia magna; settings: chronic/long-term; duration: 21 days; reproduction
[5] = test system: Lepomis macrochirus; settings: chronic/long-term; duration: 28 days; body weight
[6] = test system: Oryctolagus sp.; settings: developmental; development
[7] = test system: Typhlodromus pyri; test: LR50; higher = less toxic; settings: not reported; mortality

Q: How did the NOEC [1] turn out when `CC(C)C(O)(c1ccc(OC(F)(F)F)cc1)c1cncnc1` (stereo unspecified) [Flurprimidol] was run?
A: 62.6 mg/kg

Q: And the NOAEL [2]?
A: 1.5 mg/kg-day

Q: What about the LOAEL ([3]; chronic, duration: 2 years, organ weight) of the same compound?
A: 1 mg/kg-day

Q: And the NOAEL ([3]; developmental, development)?
A: 10 mg/kg-day

Q: What about the NOAEL ([3]; reproduction developmental, reproduction) of the same compound?
A: 1.8 mg/kg-day

Q: What about the NOEL ([3]; short-term, oral, diet, body weight) of the same compound?
A: 1.62 mg/kg-day

Q: What about the NOAEL ([3]; subchronic, duration: 90 days, oral, organ weight) of the same compound?
A: 1.96 mg/kg-day

Q: And the NOEC [4]?
A: 1.7 mg/L

Q: What about the NOEC [5] of the same compound?
A: 0.42 mg/L

Q: What about the NOAEL [6] of the same compound?
A: 9 mg/kg-day

Q: And the LR50 [7]?
A: > 29.6 g/ha
